This passage reports IC50 and Ki results from ChEMBL document CHEMBL1909046, “DrugMatrix in vitro pharmacology data”.

Data set [1] addresses C-C chemokine receptor type 5 (Homo sapiens, UniProt P51681). Type of data set: cell membranes, HEK293, Membrane. The following applies: hek293.
Data set [2] is described as follows: DRUGMATRIX: Phosphodiesterase PDE4 enzyme inhibition (substrate: [3H]cAMP + cAMP). Particulars: u-937; Not Active = under 50% inhibition at 10 µM.
The target in data set [3] is T1, Angiotensin-converting enzyme (Oryctolagus cuniculus, UniProt P12822).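 Note: enzymatic inhibition of angiotensin-converting enzyme measured with FAPGG as the substrate; in other assays of this panel Not Active means under 50% inhibition at 10 µM.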
T1 sequence (P12822 whole entry): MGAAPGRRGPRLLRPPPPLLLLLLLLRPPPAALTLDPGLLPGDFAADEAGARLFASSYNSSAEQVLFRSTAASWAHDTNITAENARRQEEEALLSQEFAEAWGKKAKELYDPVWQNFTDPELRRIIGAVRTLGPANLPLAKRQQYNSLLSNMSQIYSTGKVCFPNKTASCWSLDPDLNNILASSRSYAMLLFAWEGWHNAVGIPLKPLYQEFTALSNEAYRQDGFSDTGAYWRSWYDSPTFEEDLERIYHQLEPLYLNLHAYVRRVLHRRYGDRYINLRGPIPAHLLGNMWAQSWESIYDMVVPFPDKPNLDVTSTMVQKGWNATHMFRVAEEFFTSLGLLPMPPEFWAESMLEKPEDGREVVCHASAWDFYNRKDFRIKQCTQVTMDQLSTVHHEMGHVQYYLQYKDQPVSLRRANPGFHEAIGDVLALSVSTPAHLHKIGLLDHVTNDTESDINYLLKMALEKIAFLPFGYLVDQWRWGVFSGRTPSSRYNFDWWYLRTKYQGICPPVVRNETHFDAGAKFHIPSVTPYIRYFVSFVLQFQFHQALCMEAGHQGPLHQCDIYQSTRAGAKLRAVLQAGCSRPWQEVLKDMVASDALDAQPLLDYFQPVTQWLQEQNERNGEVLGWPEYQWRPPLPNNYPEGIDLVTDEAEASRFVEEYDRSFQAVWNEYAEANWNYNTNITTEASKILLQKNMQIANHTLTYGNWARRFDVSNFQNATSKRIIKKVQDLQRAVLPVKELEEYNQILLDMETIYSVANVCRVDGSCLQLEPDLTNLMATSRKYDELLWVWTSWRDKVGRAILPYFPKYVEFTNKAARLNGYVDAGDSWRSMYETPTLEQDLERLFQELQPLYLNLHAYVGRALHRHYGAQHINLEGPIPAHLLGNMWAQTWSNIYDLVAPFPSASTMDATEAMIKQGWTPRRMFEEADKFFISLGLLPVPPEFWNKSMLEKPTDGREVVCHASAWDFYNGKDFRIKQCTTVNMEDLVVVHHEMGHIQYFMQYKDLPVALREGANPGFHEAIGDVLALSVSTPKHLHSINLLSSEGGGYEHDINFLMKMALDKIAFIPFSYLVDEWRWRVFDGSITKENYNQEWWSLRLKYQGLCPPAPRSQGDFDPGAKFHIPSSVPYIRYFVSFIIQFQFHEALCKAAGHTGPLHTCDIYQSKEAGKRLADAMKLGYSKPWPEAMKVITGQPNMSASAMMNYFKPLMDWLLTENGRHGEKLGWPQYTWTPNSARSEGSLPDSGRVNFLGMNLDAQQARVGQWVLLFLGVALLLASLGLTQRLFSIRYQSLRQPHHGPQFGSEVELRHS
The class given is tissue-based, Lung.

Data set [4] addresses 5-hydroxytryptamine receptor 1B (Rattus norvegicus, UniProt P28564). Type of data set: cell membranes, Wistar, Cerebral cortex, Membrane. The following applies: for Ki: read-out: Ki.
The target of another data set is T2, Adenosine receptor A3 (Homo sapiens, UniProt P0DMS8).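 Note: radioligand binding assay with AB-MECA serving as the labeled ligand; in other assays of this panel Not Active means under 50% inhibition at 10 µM.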
T2 sequence (P0DMS8 whole entry): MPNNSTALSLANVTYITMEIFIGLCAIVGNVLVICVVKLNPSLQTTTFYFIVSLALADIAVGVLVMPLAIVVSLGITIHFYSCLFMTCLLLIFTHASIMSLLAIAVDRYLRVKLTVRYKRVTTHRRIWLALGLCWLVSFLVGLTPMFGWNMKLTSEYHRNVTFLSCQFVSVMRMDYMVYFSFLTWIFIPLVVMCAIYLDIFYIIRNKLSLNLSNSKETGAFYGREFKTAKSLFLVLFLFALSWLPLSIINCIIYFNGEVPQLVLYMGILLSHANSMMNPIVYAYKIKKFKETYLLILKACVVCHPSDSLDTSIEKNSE
Type of data set: cell membranes, CHO-K1, Membrane.

The target of another data set is Cytochrome P450 3A4 (Homo sapiens, UniProt P08684). Particulars: bti-tn-5b1-4. Note: in other assays of this panel Not Active means under 50% inhibition at 10 µM.
Chain of Cytochrome P450 3A4 (P08684 whole entry): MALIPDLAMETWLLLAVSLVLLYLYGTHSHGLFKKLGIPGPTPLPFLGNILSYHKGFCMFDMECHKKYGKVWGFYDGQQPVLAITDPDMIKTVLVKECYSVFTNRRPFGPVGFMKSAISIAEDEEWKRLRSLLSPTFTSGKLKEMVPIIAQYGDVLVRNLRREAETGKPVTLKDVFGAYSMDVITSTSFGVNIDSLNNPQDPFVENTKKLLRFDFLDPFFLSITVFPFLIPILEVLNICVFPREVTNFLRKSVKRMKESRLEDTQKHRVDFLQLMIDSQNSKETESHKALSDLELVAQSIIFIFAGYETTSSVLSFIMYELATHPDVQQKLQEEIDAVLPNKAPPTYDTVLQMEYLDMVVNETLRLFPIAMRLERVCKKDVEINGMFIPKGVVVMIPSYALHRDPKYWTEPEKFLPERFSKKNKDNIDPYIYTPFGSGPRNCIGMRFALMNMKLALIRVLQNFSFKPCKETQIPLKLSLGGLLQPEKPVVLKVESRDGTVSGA
A further data set deals with T3, Glucocorticoid receptor (Homo sapiens, UniProt P04150).
T3 sequence (P04150 whole entry): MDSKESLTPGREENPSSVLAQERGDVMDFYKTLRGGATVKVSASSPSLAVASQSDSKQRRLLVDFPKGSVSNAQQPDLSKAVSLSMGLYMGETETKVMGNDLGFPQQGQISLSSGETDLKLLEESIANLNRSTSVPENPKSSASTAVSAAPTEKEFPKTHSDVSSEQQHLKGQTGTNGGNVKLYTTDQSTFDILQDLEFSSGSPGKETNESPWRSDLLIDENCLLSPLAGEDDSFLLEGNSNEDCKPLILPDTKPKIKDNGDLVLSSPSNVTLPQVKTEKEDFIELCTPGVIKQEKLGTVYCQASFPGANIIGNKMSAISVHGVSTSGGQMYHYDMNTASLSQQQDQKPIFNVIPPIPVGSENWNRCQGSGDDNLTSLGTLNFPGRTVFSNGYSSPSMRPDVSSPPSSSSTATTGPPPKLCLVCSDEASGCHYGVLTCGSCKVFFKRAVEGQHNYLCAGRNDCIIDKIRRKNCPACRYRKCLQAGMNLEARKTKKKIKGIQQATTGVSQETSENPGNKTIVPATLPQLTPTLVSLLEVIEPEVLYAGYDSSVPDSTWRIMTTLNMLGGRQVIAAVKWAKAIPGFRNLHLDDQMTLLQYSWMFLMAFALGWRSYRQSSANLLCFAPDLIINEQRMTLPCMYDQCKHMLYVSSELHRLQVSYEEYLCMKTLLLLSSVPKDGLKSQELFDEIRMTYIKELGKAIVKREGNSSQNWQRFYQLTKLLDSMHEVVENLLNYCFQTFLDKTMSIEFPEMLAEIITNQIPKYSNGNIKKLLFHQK
Particulars: hela s3.

Chain of C-C chemokine receptor type 5 (P51681 whole entry): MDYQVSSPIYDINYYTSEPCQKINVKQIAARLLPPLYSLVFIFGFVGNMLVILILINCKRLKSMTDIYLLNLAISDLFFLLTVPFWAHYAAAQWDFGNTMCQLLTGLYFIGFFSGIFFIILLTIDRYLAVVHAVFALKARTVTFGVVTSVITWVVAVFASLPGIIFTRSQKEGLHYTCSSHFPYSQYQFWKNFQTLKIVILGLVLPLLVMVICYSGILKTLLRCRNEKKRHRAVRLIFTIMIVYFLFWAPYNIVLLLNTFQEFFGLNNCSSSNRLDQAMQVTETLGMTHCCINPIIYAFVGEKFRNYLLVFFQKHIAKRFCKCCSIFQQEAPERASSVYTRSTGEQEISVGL
Chain of 5-hydroxytryptamine receptor 1B (P28564 whole entry): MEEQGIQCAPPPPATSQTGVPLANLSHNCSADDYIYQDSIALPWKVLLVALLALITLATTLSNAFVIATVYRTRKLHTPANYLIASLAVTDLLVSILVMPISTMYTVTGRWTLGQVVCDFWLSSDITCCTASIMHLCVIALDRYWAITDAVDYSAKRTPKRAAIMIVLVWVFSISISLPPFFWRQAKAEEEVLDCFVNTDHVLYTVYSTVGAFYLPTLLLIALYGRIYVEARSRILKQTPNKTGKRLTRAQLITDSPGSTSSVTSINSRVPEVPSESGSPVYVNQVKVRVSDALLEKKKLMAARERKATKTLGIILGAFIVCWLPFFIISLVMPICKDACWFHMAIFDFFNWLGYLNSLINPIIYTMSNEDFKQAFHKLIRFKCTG

For orientation: IC50 means the concentration at which inhibition is half-maximal. What is called Ki is a measure of affinity in units of concentration, obtained from inhibition or displacement. In the case of `CC1=C(CC(=O)O)c2cc(F)ccc2/C1=C\c1ccc([S+](C)[O-])cc1` (configuration not stated), the IC50 entry (in data set [1]; in data set [2]; in data set [3]; in data set [4]; against Adenosine receptor A3 (cho-k1); on Cytochrome P450 3A4) was “Not Active” in each case. For the same compound, the IC50 entry against Glucocorticoid receptor is recorded as “Not Active”. Besides, the Ki entry (in data set [2]; at Cytochrome P450 3A4) was “Not Active” each time.

`N[C@H](CSC(=S)NCc1ccccc1)C(=O)O`: the IC50 result (in data set [1]; in data set [2]; in data set [3]; in data set [4]; at Adenosine receptor A3 (cho-k1); against Cytochrome P450 3A4) was “Not Active” in each case. Further, at Glucocorticoid receptor, the IC50 entry is “Not Active”. In addition, the Ki result (in data set [2]; at Cytochrome P450 3A4) was “Not Active” each time.

Regarding `CC(=O)N[C@@H]1[C@H](Oc2c3cc4cc2Oc2ccc(cc2Cl)[C@@H](O[C@@H]2O[C@@H](CO)[C@@H](O)[C@H](O)[C@@H]2NC(C)=O)[C@@H]2NC(=O)[C@H](NC(=O)[C@@H]4NC(=O)[C@H]4NC(=O)[C@@H](Cc5ccc(c(Cl)c5)O3)NC(=O)[C@H](N)c3ccc(O)c(c3)Oc3cc(O)cc4c3)c3ccc(O)c(c3)-c3c(O[C@H]4O[C@H](CO)[C@@H](O)[C@@H](O)[C@@H]4O)cc(O)cc3[C@@H](C(=O)O)NC2=O)O[C@@H](CO)[C@@H](O)[C@@H]1O`, the concentration for half-maximal inhibition (IC50) result (in data set [1]; in data set [2]; in data set [3]; in data set [4]; against Adenosine receptor A3 (cho-k1); against Cytochrome P450 3A4) was “Not Active” in each case. Moreover, the 50% inhibitory concentration (IC50) result against Glucocorticoid receptor is “Not Active”. The inhibition constant Ki entry (in data set [2]; on Cytochrome P450 3A4) was “Not Active” throughout.

With `Clc1ccc2c(c1)C(N1CCNCC1)=Nc1ccccc1O2` [AMOXAPINE], the half-inhibitory concentration (IC50) entry (in data set [1]; in data set [3]; in data set [4]; at Adenosine receptor A3 (cho-k1); against Cytochrome P450 3A4; against Glucocorticoid receptor) was “Not Active” in each case. In addition, the inhibition constant Ki result on Cytochrome P450 3A4 is given as “Not Active”.

In the case of `COc1cc2c(c(OC)c1OC)-c1ccc(OC)c(=O)cc1[C@@H](NC(C)=O)CC2` [COLCHICINE], the concentration for half-maximal inhibition (IC50) entry (in data set [1]; in data set [3]; in data set [4]; against Adenosine receptor A3 (cho-k1); at Glucocorticoid receptor) was “Not Active” in each case.

Consider `CN1CCC(=C2c3ccccc3C=Cc3ccccc32)CC1` [CYPROHEPTADINE], for which the IC50 entry was “Not Active” in data set [1]; “Not Active” in data set [3]; 2780 nM in data set [4] (read-out: IC50); “Not Active” against Adenosine receptor A3 (cho-k1); “Not Active” against Cytochrome P450 3A4; “Not Active” against Glucocorticoid receptor. The figures for the inhibition constant (Ki) (in data set [4]; at Cytochrome P450 3A4) were 1260 nM and “Not Active”, respectively.

As for `CC/C(=C(/CC)c1ccc(O)cc1)c1ccc(O)cc1` [DIETHYLSTILBESTROL], the half-inhibitory concentration (IC50) entry (in data set [1]; in data set [3]; in data set [4]; against Cytochrome P450 3A4) was “Not Active” in each case. The Ki entry at Cytochrome P450 3A4 is “Not Active”.

Consider `CC(=O)N1CCN(c2ccc(OCC3COC(Cn4ccnc4)(c4ccc(Cl)cc4Cl)O3)cc2)CC1` (configuration not stated) [KETOCONAZOLE], for which the 50% inhibitory concentration (IC50) entry in data set [1] was “Not Active”; in data set [2] it was “Not Active”; in data set [3], “Not Active”; in data set [4] (read-out: IC50), 13500 nM; against Adenosine receptor A3 (cho-k1) it was “Not Active”; against Glucocorticoid receptor, “Not Active”. The inhibitory constant (Ki) entry in data set [2] is “Not Active”; in data set [4], 6150 nM.

As for `C=CCN1CC[C@]23c4c5ccc(O)c4O[C@H]2C(=O)CC[C@@]3(O)[C@H]1C5` [NALOXONE], the 50% inhibitory concentration (IC50) result (in data set [1]; in data set [3]; in data set [4]; against Adenosine receptor A3 (cho-k1)) was “Not Active” each time.

Regarding `COCCOC(=O)C1=C(C)NC(C)=C(C(=O)OC(C)C)C1c1cccc([N+](=O)[O-])c1` (configuration not stated) [NIMODIPINE], the concentration for half-maximal inhibition (IC50) entry (in data set [1]; in data set [2]; in data set [3]; in data set [4]; against Adenosine receptor A3 (cho-k1); on Glucocorticoid receptor) was “Not Active” in each case. For the same compound, in data set [2], the Ki entry is “Not Active”.

As to `CC(C)NCC(O)COc1cccc2ccccc12` (configuration not stated) [PROPRANOLOL], the IC50 result (in data set [1]; in data set [3]; in data set [4]; against Adenosine receptor A3 (cho-k1); on Cytochrome P450 3A4) was “Not Active” throughout. In addition, the Ki result at Cytochrome P450 3A4 is on record as “Not Active”.

For the compound `COCCCOc1ccnc(C[S+]([O-])c2nc3ccccc3[nH]2)c1C` (configuration not stated) [RABEPRAZOLE], the concentration for half-maximal inhibition (IC50) entry in data set [1] is “Not Active”; in data set [2], “Not Active”; in data set [3], “Not Active”; in data set [4], “Not Active”; at Adenosine receptor A3 (read-out: IC50), 3220 nM; against Cytochrome P450 3A4 it was “Not Active”. At Glucocorticoid receptor, the IC50 result is “Not Active”. Besides, the inhibitory constant (Ki) result in data set [2] was “Not Active”; on Adenosine receptor A3 (read-out: Ki), 1820 nM; at Cytochrome P450 3A4 it was “Not Active”.

In the case of `O=C(c1ccc(OCCN2CCCCC2)cc1)c1c(-c2ccc(O)cc2)sc2cc(O)ccc12` [RALOXIFENE], the 50% inhibitory concentration (IC50) entry in data set [1] is “Not Active”; in data set [2] it was “Not Active”; in data set [3], “Not Active”; in data set [4] (read-out: IC50), 1860 nM; against Adenosine receptor A3 (cho-k1), “Not Active”; at Cytochrome P450 3A4, “Not Active”. In addition, the 50% inhibitory concentration (IC50) result against Glucocorticoid receptor was “Not Active”. The Ki entry in data set [2] is “Not Active”; in data set [4], 846 nM; on Cytochrome P450 3A4 it was “Not Active”.

Take `CC(C)c1nc(CN(C)C(=O)N[C@H](C(=O)N[C@@H](Cc2ccccc2)C[C@H](O)[C@H](Cc2ccccc2)NC(=O)OCc2cncs2)C(C)C)cs1` [RITONAVIR]: the half-maximal inhibitory concentration (IC50) entry (in data set [1]; in data set [2]; in data set [3]; in data set [4]; at Adenosine receptor A3 (cho-k1); against Glucocorticoid receptor) was “Not Active” throughout. Besides, the inhibitory constant (Ki) entry in data set [2] is “Not Active”.

On to `CC(=O)CC(c1ccccc1)c1c(O)c2ccccc2oc1=O` (configuration not stated) [WARFARIN], for which the IC50 result (in data set [1]; in data set [2]; in data set [3]; in data set [4]; at Adenosine receptor A3 (cho-k1); on Cytochrome P450 3A4) was “Not Active” each time. Further, the inhibition constant (Ki) result (in data set [2]; at Cytochrome P450 3A4) was “Not Active” in each case.
